Assay [1] deals with BDNF/NT-3 growth factors receptor (Homo sapiens) (UniProt Q16620). Kind of assay: TrkB(h) Eurofins Kinase panel. The note with it: Compound concentration 1.0 uM.
The target of assay [2] is T1, Testis-specific serine/threonine-protein kinase 1 (Homo sapiens) (UniProt Q9BXA7).
T1 sequence (whole entry): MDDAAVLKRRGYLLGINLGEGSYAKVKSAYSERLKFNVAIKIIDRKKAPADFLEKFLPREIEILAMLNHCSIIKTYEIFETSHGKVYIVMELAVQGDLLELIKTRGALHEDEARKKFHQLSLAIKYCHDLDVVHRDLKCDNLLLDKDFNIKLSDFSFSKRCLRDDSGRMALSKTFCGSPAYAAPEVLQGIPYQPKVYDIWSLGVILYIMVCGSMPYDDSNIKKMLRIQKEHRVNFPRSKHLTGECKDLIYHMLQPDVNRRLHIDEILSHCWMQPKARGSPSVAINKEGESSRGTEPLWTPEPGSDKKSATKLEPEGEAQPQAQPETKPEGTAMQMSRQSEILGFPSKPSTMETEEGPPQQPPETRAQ
The experiment in a line: TSSK1(h) Eurofins Kinase panel. Particulars: Compound concentration 1.0 uM.

For assay [3], the target named is T2, Alpha-1A adrenergic receptor (Homo sapiens) (UniProt P35348).
T2 sequence (whole entry): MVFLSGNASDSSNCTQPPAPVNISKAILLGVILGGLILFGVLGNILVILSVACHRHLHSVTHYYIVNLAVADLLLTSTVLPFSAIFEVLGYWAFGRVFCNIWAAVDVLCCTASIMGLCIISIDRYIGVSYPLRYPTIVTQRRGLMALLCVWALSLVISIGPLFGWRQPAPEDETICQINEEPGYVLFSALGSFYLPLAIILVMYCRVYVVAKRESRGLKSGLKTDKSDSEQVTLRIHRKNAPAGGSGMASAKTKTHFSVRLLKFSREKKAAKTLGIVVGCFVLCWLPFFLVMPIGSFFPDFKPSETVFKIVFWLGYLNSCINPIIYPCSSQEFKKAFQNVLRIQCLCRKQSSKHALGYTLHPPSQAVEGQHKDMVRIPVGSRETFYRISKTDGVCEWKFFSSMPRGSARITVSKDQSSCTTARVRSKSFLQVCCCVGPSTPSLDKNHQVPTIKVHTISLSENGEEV
The note with it: Rattus norvegicus; Compound concentration 10.0 uM.

Sequence of BDNF/NT-3 growth factors receptor (Homo sapiens) (Q16620 32-822 limits assumed): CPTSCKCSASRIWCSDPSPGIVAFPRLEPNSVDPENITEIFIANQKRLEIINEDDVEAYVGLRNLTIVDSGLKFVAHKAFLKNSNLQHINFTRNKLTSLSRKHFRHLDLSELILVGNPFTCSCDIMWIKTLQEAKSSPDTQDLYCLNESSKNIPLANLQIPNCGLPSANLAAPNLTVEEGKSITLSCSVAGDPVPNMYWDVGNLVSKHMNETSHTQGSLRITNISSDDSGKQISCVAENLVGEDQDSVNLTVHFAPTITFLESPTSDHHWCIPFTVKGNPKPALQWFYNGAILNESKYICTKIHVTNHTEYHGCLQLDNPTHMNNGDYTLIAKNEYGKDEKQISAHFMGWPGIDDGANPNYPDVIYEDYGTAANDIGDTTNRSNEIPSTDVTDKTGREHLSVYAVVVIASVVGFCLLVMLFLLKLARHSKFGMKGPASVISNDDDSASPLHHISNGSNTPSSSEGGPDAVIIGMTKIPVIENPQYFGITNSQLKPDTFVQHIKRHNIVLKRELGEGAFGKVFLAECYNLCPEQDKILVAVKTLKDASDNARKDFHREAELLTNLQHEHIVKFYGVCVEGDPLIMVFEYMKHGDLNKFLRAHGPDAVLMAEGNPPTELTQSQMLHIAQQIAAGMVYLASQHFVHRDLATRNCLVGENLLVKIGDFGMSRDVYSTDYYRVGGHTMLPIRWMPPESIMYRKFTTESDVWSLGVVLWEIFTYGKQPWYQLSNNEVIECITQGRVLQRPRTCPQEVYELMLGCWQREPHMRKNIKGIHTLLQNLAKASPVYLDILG

In general, inhibition refers to the change of the read-out against control, counted positive when it falls. Take `CNCc1ccccc1-c1csc([C@@H](C)Nc2nc(C)nc3cc(OC)c(OC)cc23)c1` [BAY-293]: the % residual kinase activity in assay [1] and in assay [2] was 79% throughout. The inhibition in assay [3] was 106%.

The values are drawn from ChEMBL document CHEMBL4507273 (2021).
